From PMC5840146, “Structure-Activity Relationship Analysis of 3-Phenylcoumarin-Based Monoamine Oxidase B Inhibitors” (Frontiers in Chemistry, 2018)
Where “and” joins values, the source holds several entries; their conditions need not be identical. Identical values can stand only once. Like-named read-outs stand apart in the source and are kept apart here.

Legend:
Format in all cases: biochemical
recombinant human HSD1 = target: T1, recombinant human HSD1 (Homo sapiens, UniProt P14061); assay: HSD1 inhibition by HPLC with tritium labeled estrone/estradiol; conditions: for HSD1 inhibition % / inhibition at 1 µM: 1 μM
T1 construct: made in house; host or cells: Sf9 insect cells
T1 sequence (P14061 1-328): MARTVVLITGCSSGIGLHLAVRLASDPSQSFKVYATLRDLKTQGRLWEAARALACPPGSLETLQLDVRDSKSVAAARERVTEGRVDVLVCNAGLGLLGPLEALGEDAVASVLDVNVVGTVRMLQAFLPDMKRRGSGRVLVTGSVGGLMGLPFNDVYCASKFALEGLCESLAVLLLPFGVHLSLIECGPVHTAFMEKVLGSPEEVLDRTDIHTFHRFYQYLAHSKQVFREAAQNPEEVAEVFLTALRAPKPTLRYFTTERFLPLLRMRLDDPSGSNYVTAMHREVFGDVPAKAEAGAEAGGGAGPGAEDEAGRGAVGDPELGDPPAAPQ

MAO-A = target: T2, MAO-A (Homo sapiens, UniProt P21397); assay: continuous spectrophotometric MAO-A inhibition assay; conditions: for MAO-A inhibition %: 100 µM, 1h
T2 construct: purchased Sigma-Aldrich
T2 sequence (P21397 1-527): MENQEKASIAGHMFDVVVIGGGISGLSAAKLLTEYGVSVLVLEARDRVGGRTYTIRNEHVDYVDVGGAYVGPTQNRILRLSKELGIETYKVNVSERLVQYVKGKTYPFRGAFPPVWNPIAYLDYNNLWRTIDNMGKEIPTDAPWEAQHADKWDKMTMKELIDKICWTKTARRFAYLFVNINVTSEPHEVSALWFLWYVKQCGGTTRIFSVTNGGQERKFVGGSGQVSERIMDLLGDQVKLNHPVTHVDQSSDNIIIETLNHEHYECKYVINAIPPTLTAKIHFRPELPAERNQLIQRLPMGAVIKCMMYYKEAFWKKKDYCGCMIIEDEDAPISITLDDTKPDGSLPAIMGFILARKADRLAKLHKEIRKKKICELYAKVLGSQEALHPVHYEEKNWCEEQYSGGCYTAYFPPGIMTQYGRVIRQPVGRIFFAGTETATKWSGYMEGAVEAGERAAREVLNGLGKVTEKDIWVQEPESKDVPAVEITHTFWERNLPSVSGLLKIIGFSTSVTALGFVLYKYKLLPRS
Method: (§1) Both monoamine oxidase A (MAO-A) and B (MAO-B) protein and the reagents for the chromogenic solution of vanillic acid (4-hydroxy-3-methoxylbenzoic acid, 97% purity), 4-aminoantipyrine (reagent grade), horseradish peroxidase and the substrate tyramine hydrochloride (minimum 99% purity) as well as the potassium phosphate buffer, which was prepared using potassium phosphate dibasic trihydrate (≥99% ReagentPlus™) and potassium phosphate monobasic (minimum 98% purity, molecular biology tested), were purchased from Sigma-Aldrich (St. Louis, MO, USA) for the spectrophotometric assay.
(§2) The protocol for continuous spectrophotometric assay (Holt et al., [1997]) was followed in the activity measurements. The assay was performed in 0.2 M potassium phosphate buffer pH 7.6 on 96-well plates (Nunc™ 96F microwell plate without a lid, Nunc A/S, Roskilde, DK) in 200 μl total volume. The chromogenic solution containing 1 mM vanillic acid, 500 μM 4-aminoantipyrine and 8 U/ml horseradish peroxidase in 0.2 M potassium phosphate buffer pH 7.6 was mixed anew for each measurement. 5 mM tyramine solution was used as the substrate. In order to determine the activity of both MAO-B and MAO-A, concentration series as duplicates were prepared. The protein was combined with the chromogenic solution and incubated 30 min at 37°C. The background signal was measured using multilabel reader (Victor^TM X4, 2030 Multilabel Reader, PerkinElmer, Waltham, MA, USA) at A490 before reaching the total 200 μl volume by adding 20 μl of tyramine to final concentration of 0.5 mM on the plate. As a result, the final concentration of the chromogenic solution on the plate was 250 μM vanillic acid, 125 μM 4-aminoantipyrine and 2 U/ml horseradish peroxide. After adding the substrate, the plates were measured 300 times every 15 s using 1 s exposure time. The device was set to 37°C for the duration of the experiment.
(§3) The experiment conditions should produce absorbance change of ~0.35 (Holt et al., [1997]). […] The same wide panel of coumarin derivatives was additionally used to analyze the MAO-A inhibition at 100 μM (Table 1, Supplementary Table S1).
(§4) The measured data was then fitted on a curve using non-linear regression with the equation for log[inhibitor] vs. response. The IC50 values were therefore determined based on the curve fit. The fitted curves are shown on –log scale in Supplementary Figures S1, S2.

human CYP1A2 = target: T3, human CYP1A2 (Homo sapiens, UniProt P05177); assay: CYP1A2 inhibition, 7-ethoxyresorufin fluorescence assay
T3 construct: purchased Corning Inc
T3 sequence (P05177 1-516): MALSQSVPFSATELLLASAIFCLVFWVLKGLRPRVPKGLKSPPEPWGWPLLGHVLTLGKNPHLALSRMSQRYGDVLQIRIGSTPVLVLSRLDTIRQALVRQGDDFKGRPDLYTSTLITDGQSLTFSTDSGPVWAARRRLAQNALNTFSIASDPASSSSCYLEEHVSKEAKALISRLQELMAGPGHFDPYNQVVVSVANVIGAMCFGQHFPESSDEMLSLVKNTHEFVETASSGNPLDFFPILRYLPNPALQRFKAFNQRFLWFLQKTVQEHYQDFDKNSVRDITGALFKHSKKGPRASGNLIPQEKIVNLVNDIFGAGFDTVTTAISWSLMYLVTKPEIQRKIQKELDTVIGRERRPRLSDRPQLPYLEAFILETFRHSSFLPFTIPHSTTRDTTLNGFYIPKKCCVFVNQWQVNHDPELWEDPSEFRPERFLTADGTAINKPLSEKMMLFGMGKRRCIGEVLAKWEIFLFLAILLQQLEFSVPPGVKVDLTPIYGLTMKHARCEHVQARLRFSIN
Method: Inhibition of CYP1A2 activity was determined with commercial heterologously expressed human CYP1A2 enzyme (Corning Inc., Corning, NY, USA) as described earlier (Korhonen et al., [2005]). The metabolic activity was not in the scope of this particular study. The assay was adapted to the 96-well plate format. In each well, a 150 μL incubation volume contained 100 mM Tris-HCl buffer (pH 7.4), 4.2 mM MgCl2,1 μM 7-ethoxyresorufin, 0.5 pmol of cDNA expressed CYP1A2, […] inhibitor, and a NADPH-generating system. All inhibitors were dissolved in ethanol, and the final concentration of ethanol was 2% in all incubations. The reaction was initiated by adding the NADPH-regenerating system after a 10 min preincubation at 37°C, and after a 20 min incubation, the reaction was terminated by the addition of 110 μL of 80% acetonitrile/20% 0.5 M Tris base. The formed fluorescence was measured with a Victor2 plate counter (Perkin-Elmer Life Sciences Wallac, Turku, Finland) at 570 nm excitation and 616 nm emission.

MAO-B = target: T4, MAO-B (Homo sapiens, UniProt P27338); assay: continuous spectrophotometric MAO-B inhibition assay; conditions: for MAO-B inhibition %: 10 µM, 2h; for LiPE: LiPE = pIC50 - QPlogPo/w, new analogs and pargyline; for IC50: duplicates
T4 construct: purchased Sigma-Aldrich
T4 sequence (P27338 1-520): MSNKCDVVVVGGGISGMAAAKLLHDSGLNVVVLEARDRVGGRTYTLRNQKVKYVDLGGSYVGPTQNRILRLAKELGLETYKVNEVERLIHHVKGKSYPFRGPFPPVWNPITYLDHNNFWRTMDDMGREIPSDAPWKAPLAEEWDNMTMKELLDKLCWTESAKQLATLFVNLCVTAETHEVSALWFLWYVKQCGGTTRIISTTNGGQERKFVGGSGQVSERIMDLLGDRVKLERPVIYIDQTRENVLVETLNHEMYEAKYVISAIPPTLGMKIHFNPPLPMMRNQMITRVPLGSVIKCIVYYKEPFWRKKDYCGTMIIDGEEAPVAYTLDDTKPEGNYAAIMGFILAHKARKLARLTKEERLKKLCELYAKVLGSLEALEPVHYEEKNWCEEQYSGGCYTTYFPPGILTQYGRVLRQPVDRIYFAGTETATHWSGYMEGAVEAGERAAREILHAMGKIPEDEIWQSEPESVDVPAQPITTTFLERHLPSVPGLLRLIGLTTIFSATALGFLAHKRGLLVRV
Method: as §1, §2, §3, §4

[1] = dilution series 50 μM to 1 nM, read-out: MAO-B inhibition IC50

Compound	HSD1 inhibition % (recombinant human HSD1)	MAO-A inhibition % (MAO-A)	IC50 (human CYP1A2)	MAO-B inhibition % (MAO-B)	inhibition at 1 µM (recombinant human HSD1)	inhibition at 100 µM (MAO-A; 100 μM)	inhibition at 10 µM (MAO-B)	LiPE (MAO-B)	IC50 (MAO-B; [1])	MAO-B inhibition (in words) (MAO-B)	HSD1 inhibition (in words) (recombinant human HSD1)	MAO-A inhibition (in words) (MAO-A; 100 μM)	IC50 (MAO-B; MAO-B inhibition IC50, dilution series 50 μM to 1 nM)
COc1ccc(-c2cc3ccc(OC)cc3oc2=O)cc1 [derivative 37]	0.00%	0.00%	480 µM	39.78%									
COc1ccc2oc(=O)c(-c3ccc(C(F)(F)F)cc3)cc2c1 [derivative 1, 6-methoxy-3-(4-(trifluoromethyl)phenyl)-2H-chromen-2-one]			124 µM		0%	0%	99.5%	3.17			does not inhibit HSD1	does not produce MAO-A inhibition	~0.056 µM and 0.05 to 0.06 µM and 0.056 µM
CC(=O)Oc1ccc2cc(-c3ccc(N(C)C)cc3)c(=O)oc2c1 [derivative 19, 3-(4-(dimethylamino)phenyl)-2-oxo-2H-chromen-7-yl acetate]			370 µM		15%	0%	85.4%	3.27	0.866 µM				
C#CCN(C)Cc1ccccc1 [pargyline, reference compound]							102%						
COc1ccc(-c2cc3cc(OC(C)=O)ccc3oc2=O)cc1 [derivative 14, 3-(4-methoxyphenyl)-2-oxo-2H-chromen-6-yl acetate]			87.5 µM		1%		75.8%	2.73	8.48 µM				
CC(=O)Oc1cccc2cc(-c3ccc(N(C)C)cc3)c(=O)oc12 [derivative 26]	0.00%	0.00%	7 µM	66.79%									
CN(C)c1ccc(-c2cc3ccc(O)cc3oc2=O)cc1 [derivative 17, 3-(4-(dimethylamino)phenyl)-7-hydroxy-2H-chromen-2-one]			35 µM		5%	4.74%	90.1%	3.62	0.384 µM				

More lines, main results first:

HSD1 inhibition % (recombinant human HSD1)	MAO-A inhibition % (MAO-A)	IC50 (human CYP1A2)	MAO-B inhibition % (MAO-B)	inhibition at 1 µM (recombinant human HSD1)	inhibition at 100 µM (MAO-A; 100 μM)	inhibition at 10 µM (MAO-B)	LiPE (MAO-B)	IC50 (MAO-B; [1])	MAO-B inhibition (in words) (MAO-B)	Compound	HSD1 inhibition (in words) (recombinant human HSD1)	MAO-A inhibition (in words) (MAO-A; 100 μM)	IC50 (MAO-B; MAO-B inhibition IC50, dilution series 50 μM to 1 nM)
31.60%	0.00%	3 µM	6.66%							COc1ccc2cc(-c3cccc(OCc4ccccc4)c3)c(=O)oc2c1 [derivative 51]			
0.00%	4.08%	26 µM	42.37%							COc1ccc(-c2cc3cccc(OC(C)=O)c3oc2=O)cc1 [derivative 35]			
0.30%	0.00%	30 µM	46.01%							COc1cc(OC)cc(-c2cc3cc(Cl)cc(Cl)c3oc2=O)c1 [derivative 34]			
		7 µM		0%	0%	102%	2.28	0.317 µM		COc1ccc2oc(=O)c(-c3ccc(OC(F)(F)F)cc3)cc2c1 [derivative 4, 6-methoxy-3-(4-(trifluoromethoxy)phenyl)-2H-chromen-2-one]			
1.50%	0.00%	65 µM	8.16%						activity is lost	O=c1oc2c(CN3CCCCC3)c(O)ccc2cc1-c1ccccc1 [derivative 50]			
0.00%	22.33%	17 µM	15.81%							CC(=O)Oc1cccc2cc(-c3ccc(F)cc3)c(=O)oc12 [derivative 47]			
	0.00%	800 µM	47.77%							COc1ccc(-c2cc3cc(Cl)cc(Cl)c3oc2=O)cc1 [derivative 32]			
0.70%	0.00%	80 µM	0.00%						activity is lost	CC(=O)Oc1ccc2cc(-c3ccccc3)c(=O)oc2c1 [derivative 52]			
		84 µM		0%	0%	80.2%	3.38	~0.255 µM and 0.255 µM		COc1cc(OC)cc(-c2cc3cc(OC)ccc3oc2=O)c1 [derivative 9, 3-(3,5-dimethoxyphenyl)-6-methoxy-2H-chromen-2-one]			
				21%	0%	99.9%	4.25	~0.189 µM and 0.189 µM		COc1ccc2cc(-c3ccc(OC(C)=O)c(F)c3)c(=O)oc2c1 [derivative 6, 2-fluoro-4-(7-methoxy-2-oxo-2H-chromen-3-yl)phenyl acetate]			
